Calls of active or inactive are those of the source. The rule behind the calls is not given here.
Columns and labels:
Chlamydomonas = test: Antimicrobial activity against Chlamydomonas sp. at 0.8 to 100 ug/mL by serial dilution method; type: functional
Bracteacoccus = test: Antimicrobial activity against Bracteacoccus sp. at 0.8 to 100 ug/mL by serial dilution method; type: functional
[1] = system: Scenedesmus bajacalifornicus; test: Antimicrobial activity against Scenedesmus bajacalifornicus at 0.8 to 100 ug/mL by serial dilution method; type: functional; conditions: Tetradesmus bajacalifornicus
Pseudococcomyxa simplex [2] = test: Antimicrobial activity against Pseudococcomyxa simplex at 0.8 to 100 ug/mL by serial dilution method; type: functional
Botryococcus braunii = test: Antimicrobial activity against Botryococcus braunii at 0.8 to 100 ug/mL by serial dilution method; type: functional
Mucor hiemalis = test: Antimicrobial activity against Mucor hiemalis at 100 ug/mL by serial dilution method; type: functional, organism-based
Staphylococcus aureus = test: Antimicrobial activity against Staphylococcus aureus at 100 ug/mL after 24 hrs by serial dilution method; type: functional, organism-based
Nocardia = test: Antimicrobial activity against Nocardia flava at 100 ug/mL after 24 hrs by serial dilution method; type: functional
Micrococcus luteus = test: Antimicrobial activity against Micrococcus luteus at 100 ug/mL after 24 hrs by serial dilution method; type: functional, organism-based
Escherichia coli = test: Antimicrobial activity against Escherichia coli at 100 ug/mL after 24 hrs by serial dilution method; type: functional, organism-based
[3] = system: Chromobacterium violaceum; test: Antimicrobial activity against Chromobacterium violaceum at 100 ug/mL after 24 hrs by serial dilution method; type: functional, organism-based
Candida albicans = test: Antimicrobial activity against Candida albicans at 100 ug/mL after 24 hrs by serial dilution method; type: functional, organism-based
Rhodotorula glutinis = test: Antimicrobial activity against Rhodotorula glutinis at 100 ug/mL after 24 hrs by serial dilution method; type: functional, organism-based
Wickerhamomyces anomalus = test: Antimicrobial activity against Pichia anomala at 100 ug/mL after 24 hrs by serial dilution method; type: functional, organism-based
[4] = system: Schizosaccharomyces pombe; test: Antimicrobial activity against Schizosaccharomyces pombe at 100 ug/mL after 24 hrs by serial dilution method; type: functional, organism-based
U-937 = test: Cytotoxicity against human U937 cells up to 100 ug/mL by WST-1 assay; type: functional, cell-based
Pseudococcomyxa simplex [5] = test: Antimicrobial activity against Pseudococcomyxa simplex at 100 ug/mL by serial dilution method; type: functional

SMILES	growth inhibition (GI) (Chlamydomonas)	growth inhibition (GI) (Bracteacoccus)	growth inhibition (GI) [1]	growth inhibition (GI) (Pseudococcomyxa simplex [2])	growth inhibition (GI) (Botryococcus braunii)	growth inhibition (GI) (Mucor hiemalis)	growth inhibition (GI) (Staphylococcus aureus)	growth inhibition (GI) (Nocardia)	growth inhibition (GI) (Micrococcus luteus)	growth inhibition (GI) (Escherichia coli)	growth inhibition (GI) [3]	growth inhibition (GI) (Candida albicans)	growth inhibition (GI) (Rhodotorula glutinis)	growth inhibition (GI) (Wickerhamomyces anomalus)	growth inhibition (GI) [4]	Activity (U-937)	growth inhibition (GI) (Pseudococcomyxa simplex [5])
CCCCCC(=O)NCC(=O)c1ccc(O)cc1	inactive	inactive	inactive	inactive	inactive	inactive	inactive	inactive	inactive	inactive	inactive	inactive	inactive	inactive	inactive	inactive	–
CC(C)CC(=O)NCC(=O)c1ccc(O)cc1	inactive	inactive	inactive	inactive	inactive	inactive	inactive	inactive	inactive	inactive	inactive	inactive	inactive	inactive	inactive	inactive	–
CC(=O)NCC(=O)c1ccc(O)cc1	inactive	inactive	inactive	inactive	inactive	inactive	inactive	inactive	inactive	inactive	inactive	inactive	inactive	inactive	inactive	inactive	–
CC(C)CC(=O)N/C=C/c1ccc(O)cc1	inactive	inactive	inactive	–	inactive	inactive	inactive	inactive	inactive	inactive	inactive	inactive	inactive	inactive	inactive	inactive	Active
CCCC(=O)NCC(=O)c1ccc(O)cc1	inactive	inactive	inactive	inactive	inactive	inactive	inactive	inactive	inactive	inactive	inactive	inactive	inactive	inactive	inactive	inactive	–
CC(C)CCC(=O)NCC(=O)c1ccc(O)cc1	inactive	inactive	inactive	inactive	inactive	inactive	inactive	inactive	inactive	inactive	inactive	inactive	inactive	inactive	inactive	inactive	–

Source: ChEMBL document CHEMBL1811840, “p-hydroxyacetophenone amides from Cystobacter ferrugineus, strain Cb G35” (J Nat Prod, 2011)
